In the assay the target is L-lactate dehydrogenase A chain (Homo sapiens, UniProt P00338). Nature of the assay: Biochemical Assay. The source says: Test compounds were placed in a Greiner Bio-One (Monroe, N.C.) 1536-well black solid bottom assay plate. 200 millimolar (mM) Tris HCl, pH 7.4, 100 micromolar (M) EDTA and 0.01% TWEEN-20 , final concentration, was used as the assay buffer. The LDHA reagent was 2 nanomolar (nM) Human LDHA (Meridian Life Science, Inc., Memphis, Tenn.), final concentration, in assay buffer.

Our source for the IC50 values is BindingDB's records for patent US10961200 (Department Of Health And Human Services, 2021).

`NS(=O)(=O)c1ccc(Cc2c(-c3cccc(Nc4ccccc4)c3)nn(-c3nc(C(=O)O)cs3)c2CC2CC2)cc1` [US10961200, Compound 485] returned a 50% inhibitory concentration (IC50) below 100 nM.
The compound `CC(C)Oc1cccc(-c2nn(-c3nc(C(=O)O)cs3)c(CC3CC3)c2Cc2ccc(S(N)(=O)=O)cc2)c1` [US10961200, Compound 504] showed an IC50 below 100 nM.
`NS(=O)(=O)c1ccc(Cc2cn(-c3nc(C(=O)O)cs3)nc2-c2ccc(F)c(-c3ccccc3)c2)cc1` [US10961200, Compound 515]: the IC50 is below 100 nM.
